Assay results reported in PubChem BioAssay AID330 (DTP/NCI, 2004).
“And” between values parts separate entries of the source, which are not always exact repeats. Equal entries are not always repeated. Toxic doses and inconclusive results are not listed. Peptide text beside a SMILES is read from it.

Test system: P388 leukemia ip, CD2F1 mice, survival T/C
Assay: NCI In Vivo Anticancer Drug Screen. Data for tumor model P388 Leukemia (intraperitoneal) in CD2F1 (CDF1) mice
Details: endpoint: median survival time, higher = longer survival
Outline: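 Mice carrying the transplanted tumor received test compound or vehicle. Survival was recorded in each group, and the value is the treated-group measurement divided by that of the vehicle-treated control group.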

[1] = dose: 50.0 mg/kg/injection, schedule: Q01DX009 (ip), vehicle: saline with Tween-80
[2] = dose: 200.0 mg/kg/injection, schedule: Q04DX003 (ip), vehicle: saline with Tween-80
[3] = dose: 50.0 mg/kg/injection, schedule: Q01DX005 (ip), vehicle: saline with Tween-80
[4] = dose: 100.0 mg/kg/injection, schedule: Q01DX005 (ip), vehicle: saline with Tween-80
[5] = dose: 200.0 mg/kg/injection, schedule: Q01DX005 (ip), vehicle: saline with Tween-80
[6] = dose: 60.0 mg/kg/injection, schedule: Q01DX005 (ip), vehicle: saline with Tween-80
[7] = dose: 120.0 mg/kg/injection, schedule: Q01DX005 (ip), vehicle: saline with Tween-80
[8] = dose: 240.0 mg/kg/injection, schedule: Q01DX005 (ip), vehicle: saline with Tween-80
[9] = dose: 50.0 mg/kg/injection, schedule: Q01DX005 (ip), vehicle: saline
[10] = dose: 100.0 mg/kg/injection, schedule: Q01DX005 (ip), vehicle: saline
[11] = dose: 200.0 mg/kg/injection, schedule: Q01DX005 (ip), vehicle: saline

## CCCC(=O)OCC1OC(n2cnc3c(=S)nc(N)[nH]c32)C(OC(=O)CCC)C1OC(=O)CCC (centres undefined)
dose: 1.25 mg/kg/injection, schedule: Q04DX003 (ip), vehicle: saline with Tween-80
  T/C: 100 % of control
dose: 2.5 mg/kg/injection, schedule: Q04DX003 (ip), vehicle: saline with Tween-80
  T/C: 104 % of control
dose: 5.0 mg/kg/injection, schedule: Q04DX003 (ip), vehicle: saline with Tween-80
  T/C: 113 % of control
dose: 10.0 mg/kg/injection, schedule: Q04DX003 (ip), vehicle: saline with Tween-80
  T/C: 155 % of control
dose: 20.0 mg/kg/injection, schedule: Q04DX003 (ip), vehicle: saline with Tween-80
  T/C: 165 % of control
dose: 25.0 mg/kg/injection, schedule: Q01DX009 (ip), vehicle: saline with Tween-80
  T/C: 122 % of control
dose: 25.0 mg/kg/injection, schedule: Q04DX003 (ip), vehicle: saline with Tween-80
  T/C: 150 % of control
[1]
  T/C: 90 % of control
dose: 50.0 mg/kg/injection, schedule: Q04DX003 (ip), vehicle: saline with Tween-80
  T/C: 116 % of control
[2]
  T/C: 118 % of control

## COc1c(Cl)cc(Cl)cc1C(=O)NO
[3]
  T/C: 97 % of control
[4]
  T/C: 106 % of control
[5]
  T/C: 112 % of control

## CC1=NC(c2ccccn2)=NNC(c2ccccn2)=C1c1ccccc1
dose: 25.0 mg/kg/injection, schedule: Q01DX009 (ip), vehicle: other
  T/C: 113 % of control
dose: 50.0 mg/kg/injection, schedule: Q01DX009 (ip), vehicle: other
  T/C: 116 % of control
dose: 100.0 mg/kg/injection, schedule: Q01DX009 (ip), vehicle: other
  T/C: 116 % of control
dose: 200.0 mg/kg/injection, schedule: Q01DX009 (ip), vehicle: other
  T/C: 114 % of control
dose: 400.0 mg/kg/injection, schedule: Q01DX009 (ip), vehicle: other
  T/C: 120 % of control

## NCC(O)c1cccc(O)c1 (centres undefined)
dose: 6.25 mg/kg/injection, schedule: Q01DX009 (ip), vehicle: saline
  T/C: 101 % of control and 92 % of control
dose: 12.5 mg/kg/injection, schedule: Q01DX009 (ip), vehicle: saline
  T/C: 101 % of control and 95 % of control
dose: 25.0 mg/kg/injection, schedule: Q01DX009 (ip), vehicle: saline
  T/C: 100 % of control

## CSc1nc2[nH]c(=O)[nH]c(=O)c2[nH]1
[3]
  T/C: 95 % of control
[4]
  T/C: 94 % of control
[5]
  T/C: 108 % of control

## NC1=C(O)C(=O)C(/C=C/c2ccccc2)O1 (centres undefined)
[6]
  T/C: 90 % of control
[7]
  T/C: 90 % of control
[8]
  T/C: 87 % of control

## C[C@]12CC(=O)[C@@H](C[C@H]1OC(=O)c1ccccc1)[C@@]21CO1
dose: 2.0 mg/kg/injection, schedule: Q04DX002 (ip), vehicle: distilled water + Tween-80
  T/C: 102 % of control
dose: 4.0 mg/kg/injection, schedule: Q04DX002 (ip), vehicle: distilled water + Tween-80
  T/C: 97 % of control
dose: 8.0 mg/kg/injection, schedule: Q04DX002 (ip), vehicle: distilled water + Tween-80
  T/C: 100 % of control
dose: 16.0 mg/kg/injection, schedule: Q04DX002 (ip), vehicle: distilled water + Tween-80
  T/C: 106 % of control
dose: 32.0 mg/kg/injection, schedule: Q04DX002 (ip), vehicle: distilled water + Tween-80
  T/C: 99 % of control

## COc1ccc2nc3cc(Cl)ccc3c(NCCCNCCCCNCCCNc3c4ccc(Cl)cc4nc4ccc(OC)cc34)c2c1
dose: 0.62 mg/kg/injection, schedule: Q01DX009 (ip), vehicle: other
  T/C: 106 % of control
dose: 1.25 mg/kg/injection, schedule: Q01DX009 (ip), vehicle: other
  T/C: 110 % of control
dose: 2.5 mg/kg/injection, schedule: Q01DX009 (ip), vehicle: other
  T/C: 119 % of control

## CC1(C)CNC(=S)N1Cc1ccccc1
dose: 50.0 mg/kg/injection, schedule: Q01DX009 (ip), vehicle: suspension in saline
  T/C: 100 % of control
dose: 100.0 mg/kg/injection, schedule: Q01DX009 (ip), vehicle: suspension in saline
  T/C: 94 % of control
dose: 200.0 mg/kg/injection, schedule: Q01DX009 (ip), vehicle: suspension in saline
  T/C: 100 % of control

## COc1ccc(Cc2cc3c(cc2OCC(N)=O)OCO3)cc1
dose: 6.25 mg/kg/injection, schedule: Q01DX005 (ip), vehicle: saline with Tween-80
  T/C: 90 % of control
dose: 12.5 mg/kg/injection, schedule: Q01DX005 (ip), vehicle: saline with Tween-80
  T/C: 90 % of control

## Cc1cc(NN=O)nc(C)c1C#N
dose: 3.12 mg/kg/injection, schedule: Q01DX009 (ip), vehicle: water
  T/C: 109 % of control
dose: 6.25 mg/kg/injection, schedule: Q01DX009 (ip), vehicle: water
  T/C: 123 % of control
dose: 12.5 mg/kg/injection, schedule: Q01DX009 (ip), vehicle: water
  T/C: 116 % of control
dose: 25.0 mg/kg/injection, schedule: Q01DX009 (ip), vehicle: water
  T/C: 150 % of control and 151 % of control
dose: 50.0 mg/kg/injection, schedule: Q01DX009 (ip), vehicle: water
  T/C: 178 % of control and 190 % of control
dose: 100.0 mg/kg/injection, schedule: Q01DX009 (ip), vehicle: water
  T/C: 178 % of control

## C/C(=N\NC(=S)N1CCCCCCCCCCCC1)c1ccccn1
dose: 6.25 mg/kg/injection, schedule: Q04DX003 (ip), vehicle: Klucel (hydroxypropylcellulose) (HPC)
  T/C: 101 % of control
dose: 12.5 mg/kg/injection, schedule: Q04DX003 (ip), vehicle: Klucel (hydroxypropylcellulose) (HPC)
  T/C: 100 % of control and 102 % of control and 117 % of control
dose: 25.0 mg/kg/injection, schedule: Q04DX003 (ip), vehicle: Klucel (hydroxypropylcellulose) (HPC)
  T/C: 100 % of control and 113 % of control and 120 % of control
dose: 50.0 mg/kg/injection, schedule: Q04DX003 (ip), vehicle: Klucel (hydroxypropylcellulose) (HPC)
  T/C: 93 % of control

## CN(C)CCCN1CC2CC=CCC2C1 (centres undefined)
[9]
  T/C: 99 % of control
[10]
  T/C: 99 % of control
[11]
  T/C: 100 % of control

## CC(C)CC(NC(=O)C(N)CCCN=C(N)N)C(=O)O (stereo not drawn) (H-Arg-Leu-OH; configuration not given here)
[9]
  T/C: 100 % of control
[10]
  T/C: 100 % of control
[11]
  T/C: 106 % of control

## Cc1ccc(Nc2n[nH]c(=S)s2)cc1C
dose: 100.0 mg/kg/injection, schedule: Q04DX003 (ip), vehicle: saline with Tween-80
  T/C: 90 % of control
[2]
  T/C: 90 % of control
dose: 400.0 mg/kg/injection, schedule: Q04DX003 (ip), vehicle: saline with Tween-80
  T/C: 95 % of control

## BrCC[N+]12CC[N+](CCBr)(CC1)C2 (tested in a mixture with another compound)
dose: 5.0 mg/kg/injection, schedule: Q04DX003 (ip), vehicle: water
  T/C: 107 % of control
dose: 10.0 mg/kg/injection, schedule: Q04DX003 (ip), vehicle: water
  T/C: 114 % of control
dose: 20.0 mg/kg/injection, schedule: Q04DX003 (ip), vehicle: distilled water + Tween-80
  T/C: 122 % of control
dose: 20.0 mg/kg/injection, schedule: Q04DX003 (ip), vehicle: water
  T/C: 100 % of control
dose: 37.5 mg/kg/injection, schedule: Q04DX003 (ip), vehicle: water
  T/C: 112 % of control
dose: 40.0 mg/kg/injection, schedule: Q04DX003 (ip), vehicle: distilled water + Tween-80
  T/C: 107 % of control
dose: 40.0 mg/kg/injection, schedule: Q04DX003 (ip), vehicle: water
  T/C: 104 % of control
dose: 80.0 mg/kg/injection, schedule: Q04DX003 (ip), vehicle: distilled water + Tween-80
  T/C: 118 % of control
dose: 80.0 mg/kg/injection, schedule: Q04DX003 (ip), vehicle: water
  T/C: 110 % of control
dose: 160.0 mg/kg/injection, schedule: Q04DX003 (ip), vehicle: distilled water + Tween-80
  T/C: 116 % of control
dose: 160.0 mg/kg/injection, schedule: Q04DX003 (ip), vehicle: water
  T/C: 112 % of control

## CC1=CC(=O)C(O)C2(C)C(CCC3(C)OCCO3)C=C(O[Si](C)(C)C(C)(C)C)CC12 (centres undefined)
[6]
  T/C: 96 % of control
[7]
  T/C: 96 % of control
[8]
  T/C: 100 % of control

## CNC(=O)CCC(NS(=O)(=O)c1ccccc1)C(=O)O (centres undefined)
dose: 50.0 mg/kg/injection, schedule: Q01DX005 (ip), vehicle: Klucel (hydroxypropylcellulose) (HPC)
  T/C: 107 % of control
dose: 100.0 mg/kg/injection, schedule: Q01DX005 (ip), vehicle: Klucel (hydroxypropylcellulose) (HPC)
  T/C: 96 % of control
dose: 200.0 mg/kg/injection, schedule: Q01DX005 (ip), vehicle: Klucel (hydroxypropylcellulose) (HPC)
  T/C: 95 % of control

## CN(CCCl)C(=O)c1ccc([N+](=O)[O-])cc1
[1]
  T/C: 105 % of control
dose: 100.0 mg/kg/injection, schedule: Q01DX009 (ip), vehicle: saline with Tween-80
  T/C: 116 % of control
dose: 200.0 mg/kg/injection, schedule: Q01DX009 (ip), vehicle: saline with Tween-80
  T/C: 101 % of control
